Converted amounts (≈) assume the structure as drawn. “Also recorded” adds a separate entry of the source.
Columns and labels:
[1] = test system: Escherichia coli NIHJ; experiment: Antimicrobial spectrum in 0.5% peptone agar; format: cell-based; conditions: read-out: Minimum Growth Inhibition Concentration
[2] = test system: Candida albicans 3147; experiment: Antimicrobial spectrum in 0.5% peptone agar; format: cell-based; conditions: read-out: Minimum Growth Inhibition Concentration
[3] = test system: Mouse Leukemia L-1210; experiment: Effect against mouse leukemia L-1210, life-prolonging effect; format: in vivo, mouse (female, CDF series); conditions: ip, once each day for 9 days
Procedure: Cells (1×10^5) of leukemia L-1210 were intraperitoneally implanted in each of several groups of 8-week-old female mice of the CDF series (5 mice for each group), a solution of oxanosine in a physiological saline solution was intraperitoneally administered once each day for 9 days, and the carcinostatic effect was evaluated based on the life-prolonging effect (T/C, %).

[4] = test system: Salmonella enteritidis 1891; experiment: Antimicrobial spectrum in 0.5% peptone agar; format: cell-based; conditions: Salmonella enterica, read-out: Minimum Growth Inhibition Concentration
[5] = test system: Corynebacterium bovis 1810; experiment: Antimicrobial spectrum in 0.5% peptone agar; format: cell-based; conditions: read-out: Minimum Growth Inhibition Concentration
[6] = test system: Shigella sonnei JS 11746; experiment: Antimicrobial spectrum in 0.5% peptone agar; format: cell-based; conditions: JS11746, read-out: Minimum Growth Inhibition Concentration
[7] = test system: Proteus vulgaris OX 19; experiment: Antimicrobial spectrum in 0.5% peptone agar; format: cell-based; conditions: OX19, read-out: Minimum Growth Inhibition Concentration
[8] = test system: Escherichia coli ML1629 (multi-resistant strain); experiment: Antimicrobial spectrum in 0.5% peptone agar; format: cell-based; conditions: read-out: Minimum Growth Inhibition Concentration
[9] = Antiviral activity (general statement); conditions: words, no test described
[10] = test system: Proteus rettgeri GN 466; experiment: Antimicrobial spectrum in 0.5% peptone agar; format: cell-based; conditions: Providencia rettgeri, GN466, read-out: Minimum Growth Inhibition Concentration
[11] = Solubility in solvents; format: physicochemical
[12] = test system: Salmonella typhi T-63; experiment: Antimicrobial spectrum in 0.5% peptone agar; format: cell-based; conditions: Salmonella enterica, read-out: Minimum Growth Inhibition Concentration
[13] = Acute toxicity in the mouse; format: in vivo; conditions: iv
[14] = test system: Mycobacterium smegmatis 607; experiment: Antimicrobial spectrum in 0.5% peptone agar; format: cell-based; conditions: Mycolicibacterium smegmatis, read-out: Minimum Growth Inhibition Concentration
[15] = test system: Proteus rettgeri GN 311; experiment: Antimicrobial spectrum in 0.5% peptone agar; format: cell-based; conditions: Providencia rettgeri, GN311, read-out: Minimum Growth Inhibition Concentration
[16] = test system: Shigella dysenteriae JS 11910; experiment: Antimicrobial spectrum in 0.5% peptone agar; format: cell-based; conditions: JS11910, read-out: Minimum Growth Inhibition Concentration
[17] = test system: Pseudomonas aeruginosa A3; experiment: Antimicrobial spectrum in 0.5% peptone agar; format: cell-based; conditions: read-out: Minimum Growth Inhibition Concentration
[18] = test system: Staphylococcus aureus, Smith strain; experiment: Antimicrobial spectrum in 0.5% peptone agar; format: cell-based; conditions: read-out: Minimum Growth Inhibition Concentration
[19] = test system: Proteus mirabilis IFM OM-9; experiment: Antimicrobial spectrum in 0.5% peptone agar; format: cell-based; conditions: IFMOM9, read-out: Minimum Growth Inhibition Concentration
[20] = test system: Micrococcus flavis FDA 16; experiment: Antimicrobial spectrum in 0.5% peptone agar; format: cell-based; conditions: FDA16, read-out: Minimum Growth Inhibition Concentration
[21] = Carcinostatic activity (general statement); conditions: words
[22] = test system: Escherichia coli K-12; experiment: Antimicrobial spectrum in 0.5% peptone agar; format: cell-based; conditions: K12, read-out: Minimum Growth Inhibition Concentration
[23] = test system: Gram-negative bacteria; experiment: Antimicrobial spectrum, summary; format: cell-based; conditions: 0.5% peptone agar; words
[24] = test system: Klebsiella pneumoniae PCI 602; experiment: Antimicrobial spectrum in 0.5% peptone agar; format: cell-based; conditions: PCI602, read-out: Minimum Growth Inhibition Concentration
[25] = test system: Shigella flexneri 4B JS 11811; experiment: Antimicrobial spectrum in 0.5% peptone agar; format: cell-based; conditions: 4BJS11811, read-out: Minimum Growth Inhibition Concentration
[26] = test system: Gram-positive bacteria; experiment: Antimicrobial spectrum, summary; format: cell-based; conditions: 0.5% peptone agar; words
[27] = test system: Bacillus subtilis PCI 219; experiment: Antimicrobial spectrum in 0.5% peptone agar; format: cell-based; conditions: PCI219, read-out: Minimum Growth Inhibition Concentration
[28] = test system: Serratia marcescens; experiment: Antimicrobial spectrum in 0.5% peptone agar; format: cell-based; conditions: read-out: Minimum Growth Inhibition Concentration
[29] = test system: Bacillus subtilis NRRLB-558; experiment: Antimicrobial spectrum in 0.5% peptone agar; format: cell-based; conditions: NRRLB558, read-out: Minimum Growth Inhibition Concentration
[30] = test system: Escherichia coli K-12; experiment: Titer by cup method on peptone-agar plate; format: cell-based; conditions: crystals; titer of culture filtrate designated as 1 u/ml
Procedure: Sakaguchi flasks (500 ml capacity) for a reciprocating type shaking machine were charged with 125 ml of a culture medium (pH value=7.0) comprising 1% of glucose, 1% of glycerol, 1% of sucrose, 0.5% of oat meal, 2% of soybean meal (Prorich supplied by Ajinomoto K.K.), 1% of pressed yeast (supplied by Oriental Kobo Kogyo K.K.), 0.5% of Casamino acid (supplied by Difco Co.) and 0.1% of calcium carbonate, and the culture medium was sterilized at 120° C. for 20 minutes in an autoclave. The culture medium in each was inoculated with one platinum loop of MG265-CF3 (Fermentation Research Institute Deposit No. 5735), and culturing was carried out for 2 days at 28° C. with shaking at 120 rpm. […] (The titer was determined according to the cup method using Escherichia coli K-12 as a test organism on peptone-agar plate, and the titer of the culture filtrate was designated as 1 u/ml.) The filtrate was passed through a column packed with 500 ml of active carbon powder for chromatography (supplied by Wako Junyaku) to absorb the oxanosine on the active carbon. […]

[31] = test system: Staphylococcus aureus FDA 209P; experiment: Antimicrobial spectrum in 0.5% peptone agar; format: cell-based; conditions: FDA209P, read-out: Minimum Growth Inhibition Concentration
[32] = test system: HeLa; experiment: Anti-HeLa activity; format: cell-based; conditions: 72 hours' culturing
Procedure: *number of cells after 72 hours' culturing in the presence of oxanosine

[33] = test system: Sarcina lutea PCI 1001; experiment: Antimicrobial spectrum in 0.5% peptone agar; format: cell-based; conditions: Micrococcus luteus, PCI1001, read-out: Minimum Growth Inhibition Concentration

Nc1nc2c(ncn2[C@@H]2O[C@H](CO)[C@@H](O)[C@H]2O)c(=O)o1 [oxanosine]
MIC [1]: > 100 µg/mL | MIC [2]: > 100 µg/mL | Life-Prolonging Effect (T/C, %) ([3]; 62.5 μg/mouse/day): 100% | Life-Prolonging Effect (T/C, %) ([3]; 125 μg/mouse/day): 120% | Life-Prolonging Effect (T/C, %) ([3]; 250 μg/mouse/day): 120% | Life-Prolonging Effect (T/C, %) ([3]; 500 μg/mouse/day): 153% | Life-Prolonging Effect (T/C, %) ([3]; 1000 μg/mouse/day): 160% | life-prolonging effect in leukemia L-1210 tumor-bearing mice ([3]; words): has a life-prolonging effect | MIC [4]: > 100 µg/mL | MIC [5]: > 100 µg/mL | MIC [6]: 25 µg/mL (≈ 88 µM) | MIC [7]: 25 µg/mL (≈ 88 µM) | MIC [8]: 25 µg/mL (≈ 88 µM) | antiviral activity [9]: has carcinostatic and antiviral activity; also recorded: has carcinostatic and antiviral actions | MIC [10]: 12.5 µg/mL (≈ 44 µM) | Solubility in Solvents ([11]; organic solvents such as ethanol, acetone, ethyl acetate (b147 only), ether, benzene): insoluble or only slightly soluble | Solubility in Solvents ([11]; water, methanol and dimethylsulfoxide): Soluble | MIC [12]: > 100 µg/mL | LD50 ([13]; in vivo): > 200 mg/kg | acute toxicity compared with various known nucleic acid type antibiotic substances ([13]; words): lower than those of various known nucleic acid type antibiotic substances | MIC [14]: > 100 µg/mL | MIC [15]: > 100 µg/mL | MIC [16]: 25 µg/mL (≈ 88 µM) | MIC [17]: > 100 µg/mL | MIC [18]: > 100 µg/mL | MIC [19]: 12.5 µg/mL (≈ 44 µM) | MIC [20]: > 100 µg/mL | carcinostatic activity [21]: has carcinostatic and antiviral activity; also recorded: has carcinostatic and antiviral actions | MIC [22]: 12.5 µg/mL (≈ 44 µM) | growth-inhibiting action against Gram-negative bacteria [23]: relatively strong growth-inhibiting action; also recorded: relatively strong inhibitory activity | MIC [24]: > 100 µg/mL | MIC [25]: 6.25 µg/mL (≈ 22 µM) | growth-inhibiting action against Gram-positive bacteria [26]: does not show growth-inhibiting action | MIC [27]: > 100 µg/mL | MIC [28]: > 100 µg/mL | MIC [29]: > 100 µg/mL | titer [30]: 117 u/mg | MIC [31]: > 100 µg/mL | Cells ([32]; 0.1 mcg/ml): 11.70 × 10^5 /plate | Cells ([32]; 1 mcg/ml): 10.31 × 10^5 /plate | Cells ([32]; 10 mcg/ml): 8.68 × 10^5 /plate | Cells ([32]; 100 mcg/ml): 1.08 × 10^5 /plate | inhibition at 0.1 µg/mL ([32]; Homo sapiens, HeLa, 0.1 mcg/ml, read-out: Percent Inhibition): 1.76% | inhibition at 1 µg/mL ([32]; Homo sapiens, HeLa, 1 mcg/ml, read-out: Percent Inhibition): 15.3% | inhibition at 10 µg/mL ([32]; Homo sapiens, HeLa, 10 mcg/ml, read-out: Percent Inhibition): 31.2% | inhibition at 100 µg/mL ([32]; Homo sapiens, HeLa, 100 mcg/ml, read-out: Percent Inhibition): 100% | IC50 ([32]; Homo sapiens, HeLa): ~30.9 µg/mL (≈ 109 µM) | MIC [33]: > 100 µg/mL

— US4394446A, “Process for the preparation of the antibiotic oxanosine” (Zaidan Hojin Biseibutsu Kagaku Kenkyu Kai, priority 1980, dated 1983)
